Data as given in ChEMBL document CHEMBL3045956, “Bioisosteric synthesis of nitrogen containing derivatives of salicyl alcohol, their in vivo pharmacological studies with molecular modeling” (2013).
Calls of active or inactive are those of the source. The calls are words filed in the database; no cut-off is given here.

Assays:
[1] = system: Mus musculus; assay: Antinociceptive activity in Balb/c albino Mus musculus (mouse) assessed as latency time on hot plate at 15 to 45 mg/kg up to 60 min by hot-plate method relative to control; format: functional, organism-based
[2] = system: Mus musculus; assay: Anti-inflammatory activity in Balb/c albino Mus musculus (mouse) assessed as inhibition of carrageenan-induced paw edema at 50 to 150 mg/kg at 1 hr relative to control; format: functional, organism-based
[3] = system: Mus musculus; assay: Antipyretic activity in Balb/c albino Mus musculus (mouse) assessed as Brewer's yeast-induced rectal temperature at 50 to 150 mg/kg, ip measured after 3 hr (reference value: 38.7 degC); format: functional; conditions: dose mg/kg 50-150; route intraperitoneal
[4] = system: Mus musculus; assay: Antipyretic activity in Balb/c albino Mus musculus (mouse) assessed as decrease in Brewer's yeast-induced rectal temperature at 50 to 150 mg/kg, ip measured up to 1.5 hr relative to control; format: functional, organism-based
[5] = system: Mus musculus; assay: Anti-inflammatory activity in Balb/c albino Mus musculus (mouse) assessed as inhibition of carrageenan-induced paw edema at 50 to 150 mg/kg at 5 hr relative to control; format: functional, organism-based
[6] = system: Mus musculus; assay: Anti-inflammatory activity in Balb/c albino Mus musculus (mouse) assessed as inhibition of carrageenan-induced paw edema at 50 to 150 mg/kg up to 5 hr relative to control; format: functional, organism-based
[7] = system: Mus musculus; assay: Analgesic activity in Balb/c albino Mus musculus (mouse) assessed as protection against acetic acid-induced writhing at 15 to 45 mg/kg measured up to 20 min relative to control; format: functional; conditions: dose mg/kg 15-45

Cl.NC(=O)C1CCN(Cc2ccccc2O)CC1
Activity [1]: inactive
inhibition [2]: Active
T [3]: 37.2 °C
inhibition [4]: Active
inhibition [5]: Active
inhibition [6]: Active
Activity [7]: 67.34%

Cl.Oc1ccccc1CN1CCCCC1
Activity [1]: inactive
inhibition [2]: Active
T [3]: 37.7 °C
inhibition [4]: Active
inhibition [5]: Active
Activity [7]: 67.62%

CC(=O)Oc1ccccc1C(=O)O [ASPIRIN]
Activity [7]: 78.38%
